From ChEMBL document CHEMBL4840374, “Cytochalasin Derivatives from the Endozoic Curvularia verruculosa CS-129, a Fungus Isolated from the Deep-Sea Squat Lobster Shinkaia crosnieri Living in the Cold Seep Environment” (J Nat Prod, 2021)
pIC50: −log10 of the molar value.

What was measured:
HCT-116 = assay: Cytotoxicity against human HCT-116 cells assessed as reduction in cell viability after 72 hrs by MTT assay; assay type: functional, cell-based; conditions: for pIC50: Homo sapiens, HCT-116, 72 h, read-out: IC50
MCF7 = assay: Cytotoxicity against human MCF7 cells assessed as reduction in cell viability after 72 hrs by MTT assay; assay type: functional, cell-based; conditions: for pIC50: Homo sapiens, MCF7, 72 h, read-out: IC50
Edwardsiella tarda = assay: Antibacterial activity against […] QDIO-10 assessed as reduction in microbial growth by microtiter plate reader assay; assay type: functional
HepG2 = assay: Cytotoxicity against human HepG2 cells assessed as reduction in cell viability after 72 hrs by MTT assay; assay type: functional, cell-based; conditions: for pIC50: Homo sapiens, HepG2, 72 h, read-out: IC50
Escherichia coli = assay: Antibacterial activity against Escherichia coli EMBLC-1 assessed as reduction in microbial growth by microtiter plate reader assay; assay type: functional
Vibrio parahaemolyticus = assay: Antibacterial activity against Vibrio parahaemolyticus QDIO-8 assessed as reduction in microbial growth by microtiter plate reader assay; assay type: functional

| MIC (Edwardsiella tarda) | Structure (SMILES) | pIC50 (HCT-116) | pIC50 (MCF7) | pIC50 (HepG2) | also measured |
| --- | --- | --- | --- | --- | --- |
| 8 µg/mL | C=C1[C@@H](C)[C@H]2[C@H](Cc3ccccc3)NC(=O)[C@]23OC(=O)/C=C/[C@H](O)[C@H](O)CC[C@@H](C)C/C=C/[C@H]3[C@@H]1O | 5.02 | 5.22 | 5.19 |  |
|  | C=C1[C@@H](C)[C@H]2[C@H](Cc3ccccc3)NC(=O)[C@]23OC(=O)[C@@H](S[C@H]2CC(=O)CCC[C@@H](C)C/C=C/[C@H]4[C@H](O)C(=C)[C@@H](C)[C@H]5[C@H](Cc6ccccc6)NC(=O)[C@]54OC2=O)CC(=O)CCC[C@@H](C)C/C=C/[C@H]3[C@@H]1O |  |  |  | MIC (Escherichia coli): 2 µg/mL |
|  | C=C1[C@@H](C)[C@H]2[C@H](Cc3ccccc3)NC(=O)[C@]23C(=O)/C=C/[C@H](O)CCC[C@@H](C)C/C=C/[C@H]3[C@@H]1O [DEOXAPHOMIN] | 5.12 | 5.15 | 5.15 |  |
| 0.5 µg/mL | O=C(N[C@H](CO)[C@H](O)c1ccc([N+](=O)[O-])cc1)C(Cl)Cl [CHLORAMPHENICOL] |  |  |  | MIC (Vibrio parahaemolyticus): 2 µg/mL |
|  | C=C1[C@@H](C)[C@H]2[C@H](Cc3ccccc3)NC(=O)[C@]23OC(=O)/C=C/[C@H](O)CCC[C@@H](C)C/C=C/[C@H]3[C@@H]1O [CYTOCHALASIN B] | 4.92 | 5.28 | 5.02 | MIC (Vibrio parahaemolyticus): 4 µg/mL |
|  | C=C1[C@@H](C)[C@H]2[C@H](Cc3ccccc3)NC(=O)[C@]23OC(=O)/C=C/CCCC[C@@H](C)C/C=C/[C@H]3[C@@H]1O |  |  |  | IC50 (HCT-116; hct-116): Not Active; IC50 (MCF7; mcf7): Not Active; IC50 (HepG2; hepg2): Not Active |
| 8 µg/mL | C[C@H]1C/C=C/[C@H]2[C@@H]3O[C@]3(C)[C@@H](C)[C@H]3[C@H](Cc4ccccc4)NC(=O)[C@]32OC(=O)/C=C/[C@H](O)CCC1 |  |  |  |  |
